According to the NIST ThermoML archive (doi:10.1016/j.fluid.2012.11.030):
Numbers after ± are expanded uncertainties.

Columns and labels:
[1] = Crystal; DTA
[2] = Molar enthalpy of transition or fusion; conditions: Crystal; DSC

Normal melting temperature [1] [°C] | Molar enthalpy of transition or fusion [2] [kcal/mol] | SMILES
-19.06 ± 0.7 | 11.4 ± 0.311 | CCCCCCCC/C=C\CCCCCCCC(=O)OCC [ethyl (Z)-9-octadeceneoate]
0.1 ± 0.7 | 9.52 ± 0.263 | CCCCCCCCCCCC(=O)OCC [ethyl dodecanoate]
25.08 ± 0.7 | 13.3 ± 0.359 | CCCCCCCCCCCCCCCC(=O)OCC [ethyl hexadecanoate]
